# Measurements as given in ChEMBL document CHEMBL1152247, “Identification of novel inhibitors of extracellular signal-regulated kinase 2 based on the structure-based virtual screening” (Bioorg Med Chem Lett, 2008).
# How the values were obtained:
# [1] = biological target: T1, Mitogen-activated protein kinase 1 (Homo sapiens, UniProt P28482); test: Inhibition of recombinant ERK2
# [2] = biological target: Mitogen-activated protein kinase 14 (Homo sapiens) (UniProt Q16539); test: Inhibition of p38-alpha at 100 uM
# [3] = biological target: T1, Mitogen-activated protein kinase 1; test: Inhibition of recombinant ERK2 at 100 uM
# Chain of Mitogen-activated protein kinase 14 (Homo sapiens) (Q16539 whole entry): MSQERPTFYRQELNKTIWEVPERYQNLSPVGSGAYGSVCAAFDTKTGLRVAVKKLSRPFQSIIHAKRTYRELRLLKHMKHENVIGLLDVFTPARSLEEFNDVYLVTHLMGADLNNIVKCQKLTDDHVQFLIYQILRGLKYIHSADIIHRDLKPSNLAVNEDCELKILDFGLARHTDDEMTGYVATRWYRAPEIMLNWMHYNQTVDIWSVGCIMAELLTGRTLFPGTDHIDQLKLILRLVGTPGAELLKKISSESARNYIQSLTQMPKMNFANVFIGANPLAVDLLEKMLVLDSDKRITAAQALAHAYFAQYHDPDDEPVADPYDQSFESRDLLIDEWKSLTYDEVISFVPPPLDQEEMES
# T1 sequence (P28482 whole entry): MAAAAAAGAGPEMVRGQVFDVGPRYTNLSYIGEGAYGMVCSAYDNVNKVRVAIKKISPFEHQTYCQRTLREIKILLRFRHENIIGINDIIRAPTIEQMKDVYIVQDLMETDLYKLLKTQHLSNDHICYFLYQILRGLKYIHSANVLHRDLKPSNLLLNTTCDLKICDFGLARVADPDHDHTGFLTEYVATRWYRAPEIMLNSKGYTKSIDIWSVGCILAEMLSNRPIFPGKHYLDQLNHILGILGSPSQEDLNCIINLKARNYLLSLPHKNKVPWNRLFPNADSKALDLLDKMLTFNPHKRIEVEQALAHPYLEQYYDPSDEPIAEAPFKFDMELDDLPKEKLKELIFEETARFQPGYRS
SMILES,IC50 [1] [µM],inhibition [2] [%],inhibition [3] [%]
O=C1/C(=C/C=C/c2ccccc2)SC(=S)N1Cc1ccc2c(c1)OCO2,23.7,,
Cc1ccc(COc2ccc(-c3n[nH]cc3-c3ccccc3)c(O)c2)cc1,16.9,12.3,87.9
O=C1/C(=C/c2ccc(O)cc2)SC(=S)N1Cc1ccccc1,5.5,16.7,92.7
COc1ccccc1-c1c[nH]nc1-c1ccc(OCc2ccccc2F)cc1O,27.4,,
COc1cc(/C=C2\SC(=S)N(Cc3ccccc3)C2=O)ccc1O,14.3,,

# Now from value to molecule:
IC50 [1] [µM],inhibition [2] [%],inhibition [3] [%],SMILES
25.6,,,O=C(/C=C/c1ccccc1)Nc1nc(NC(=O)c2ccccc2)nn1-c1ccccc1
8.3,24.5,93.1,O=C(Nc1nc(NC(=O)c2ccccc2)n(-c2ccccc2)n1)c1ccccc1
18.3,,,O=C(Nc1nc(NC(=O)c2ccco2)n(-c2ccccc2)n1)c1ccccc1
